The text below walks through data of ChEMBL document CHEMBL5149987, “Design, Synthesis, and Evaluation of WD-Repeat-Containing Protein 5 (WDR5) Degraders” (J Med Chem, 2021).

For orientation: IC50 means the concentration that gives 50% inhibition. A low value points to inhibition by little substance. A word on the Kd: it is a measure of binding affinity in units of concentration.

Calls of active or inactive are those of the source. The calls are words filed in the database; no cut-off is given here. A value given as a limit tells only on which side of the number the result lay.

Assay [1] relates to MV4-11. As to the kind of experiment: Cytotoxicity against human MV4-11 cells assessed as defect in cell proliferation at 10 uM incubated for 15 days with replacement of fresh medium containing compound on every third day. The assay is classed as functional, cell-based. The settings on record: time 15.0 day.
For assay [2], the system named is MV4-11. As to the kind of experiment: Cytotoxicity against human MV4-11 cells expressing VHL assessed as defect in cell proliferation at 5 to 10 uM incubated for 15 days with replacement of fresh medium containing compound on every third day. The settings on record: dose 5-10 µM, time 15.0 day. Format: functional, cell-based.
For assay [3], the target named is T1, WD repeat-containing protein 5 (Homo sapiens, UniProt P61964). Kind of assay: Displacement of N-(4'-((17-(5,5-difluoro-7-(1H-pyrrol-2-yl)-5H-5l4,6l4-dipyrrolo[1,2-c:2',1'-f][1,3,2]diazaborinin-3-yl)-15-oxo-4,7,10-trioxa-14-azaheptadecyl)carbamoyl)-4-(4-methylpiperazin-1-yl)-[1,1'-biphenyl]-3-yl)-6-hydroxy-4-(trifluoromethyl)nicotinamide tracer from N-/C-terminal NanoLuc-fused full-length WDR5 (unknown origin) transfected in HEK293T cells incubated for 2 hrs by NanoBRET assay. Format: cell-based. (In general: BRET reads energy transfer from a luciferase to a nearby fluorophore.)

Assay [4] deals with T1, WD repeat-containing protein 5. As to the kind of experiment: Displacement of N-(4'-((17-(5,5-difluoro-7-(1H-pyrrol-2-yl)-5H-5l4,6l4-dipyrrolo[1,2-c:2',1'-f][1,3,2]diazaborinin-3-yl)-15-oxo-4,7,10-trioxa-14-azaheptadecyl)carbamoyl)-4-(4-methylpiperazin-1-yl)-[1,1'-biphenyl]-3-yl)-6-hydroxy-4-(trifluoromethyl)nicotinamide tracer from N-/C-terminal NanoLuc-fused full-length WDR5 (unknown origin) transfected in HEK293T cell lysate incubated for 2 hrs by NanoBRET assay. Format: subcellular.

Assay [5] has the same target.
Description: Binding affinity to recombinant WDR5 (unknown origin) expressed in Escherichia coli BL21 assessed as shift in melting temperature by DSF assay
For assay [6] the target is unchanged. Kind of assay: Binding affinity to recombinant WDR5 (unknown origin) expressed in Escherichia coli BL21 assessed as dissociation constant by isothermal titration calorimetry.
The target is the same in assay [7]. The source holds these as a separate data set.
Description: Binding affinity to recombinant WDR5 (unknown origin) expressed in Escherichia coli BL21 assessed as change in enthalpy by isothermal titration calorimetry
The target is the same in assay [8]. This is another data set of the same source.
Description: Binding affinity to recombinant WDR5 (unknown origin) expressed in Escherichia coli BL21 assessed as change in entropy by isothermal titration calorimetry

For the compound `Cc1ncsc1-c1ccc(CNC(=O)[C@@H]2C[C@@H](O)CN2C(=O)[C@@H](NC(=O)CCOCCOCCOc2ccc(-c3cn4c(n3)CCC4)cc2CNC(=O)Cc2ccc(Cl)c(Cl)c2)C(C)(C)C)cc1`, the result with MV4-11 [1] and in the assay on MV4-11 [2] was Active.
Take `Cc1ncsc1-c1ccc(CNC(=O)[C@@H]2C[C@@H](O)CN2C(=O)[C@@H](NC(=O)CCOCCOCCOCCOc2ccc(-c3cn4c(n3)CCC4)cc2CNC(=O)Cc2ccc(Cl)c(Cl)c2)C(C)(C)C)cc1`: the IC50 in assay [3] and in assay [4] was no less than 50 µM in each case. Moreover, in assay [5], the deltaTm is 3.6 K.
On to `Cc1ncsc1-c1ccc(CNC(=O)[C@@H]2C[C@@H](O)CN2C(=O)[C@@H](NC(=O)CCOCCOCCOCCOCCOCCOc2ccc(-c3cn4c(n3)CCC4)cc2CNC(=O)Cc2ccc(Cl)c(Cl)c2)C(C)(C)C)cc1`, for which the IC50 in assay [3] and in assay [4] was no less than 50 µM throughout. For the same compound, the deltaTm in assay [5] was 4.3 K.
On to `COc1ccc(-c2cn3c(n2)CCC3)cc1CNC(=O)Cc1ccc(Cl)c(Cl)c1`, for which the Kd in assay [6] was found to be 125 µM. Moreover, the IC50 in assay [3] and in assay [4] was no less than 50 µM in each case. In assay [5] (filed as modulator), the deltaTm is 4.2 K. This compound also registered a deltaH in assay [7] of -10 kcal/mol. Further, in assay [8], the TdeltaS was found to be 0.7 kcal/mol.
On to `COc1cc(C(=O)NCCOCCOCCOCCOCCOCCOCCOCCNC(=O)c2ccc(-c3ccc(N4CCN(C)CC4)c(NC(=O)c4c[nH]c(=O)cc4C(F)(F)F)c3)cc2)ccc1NC(=O)[C@@H]1N[C@@H](CC(C)(C)C)[C@](C#N)(c2ccc(Cl)cc2F)[C@H]1c1cccc(Cl)c1F`, for which the 50% inhibitory concentration (IC50) in assay [3] and in assay [4] was no less than 50 µM throughout. The compound further had a deltaTm in assay [5] of 0.3 K.
On to `Cc1ncsc1-c1ccc(CNC(=O)[C@@H]2C[C@@H](O)CN2C(=O)[C@@H](NC(=O)CCOCCOCCOCCOCCOCCOCCOCCOc2ccc(-c3cn4c(n3)CCC4)cc2CNC(=O)Cc2ccc(Cl)c(Cl)c2)C(C)(C)C)cc1`, for which the IC50 in assay [3] and in assay [4] was no less than 50 µM in each case. Also, the deltaTm in assay [5] was found to be 4.6 K.
In the case of `COc1cc(C(=O)NCc2ccc(CNC(=O)c3ccc(-c4ccc(N5CCN(C)CC5)c(NC(=O)c5c[nH]c(=O)cc5C(F)(F)F)c4)cc3)cc2)ccc1NC(=O)[C@@H]1N[C@@H](CC(C)(C)C)[C@](C#N)(c2ccc(Cl)cc2F)[C@H]1c1cccc(Cl)c1F`, the IC50 in assay [3] and in assay [4] was no less than 50 µM in each case. In assay [5], this compound returned a deltaTm of 0.7 K.
With `COc1cc(C(=O)NCCOCCNC(=O)c2ccc(-c3ccc(N4CCN(C)CC4)c(NC(=O)c4c[nH]c(=O)cc4C(F)(F)F)c3)cc2)ccc1NC(=O)[C@@H]1N[C@@H](CC(C)(C)C)[C@](C#N)(c2ccc(Cl)cc2F)[C@H]1c1cccc(Cl)c1F`, the IC50 in assay [3] and in assay [4] was no less than 50 µM throughout. Also, in assay [5], the deltaTm came to 0.9 K.
On to `Cc1ncsc1-c1ccc(CNC(=O)[C@@H]2C[C@@H](O)CN2C(=O)[C@@H](NC(=O)CCOCCOc2ccc(-c3cn4c(n3)CCC4)cc2CNC(=O)Cc2ccc(Cl)c(Cl)c2)C(C)(C)C)cc1`, for which the IC50 in assay [3] and in assay [4] was no less than 50 µM throughout. The deltaTm in assay [5] turned out to be 7 K.
As to `Cc1ncsc1-c1ccc(CNC(=O)[C@@H]2C[C@@H](O)CN2C(=O)[C@@H](NC(=O)CCOCCOCCOCCOCCOc2cc(-c3cn4c(n3)CCC4)ccc2CNC(=O)Cc2ccc(Cl)c(Cl)c2)C(C)(C)C)cc1`, the IC50 in assay [3] and in assay [4] was no less than 50 µM each time. Moreover, the deltaTm in assay [5] came to 3.4 K.
As to `Cc1ncsc1-c1ccc(CNC(=O)[C@@H]2C[C@@H](O)CN2C(=O)[C@@H](NC(=O)CCOCCOCCOCCOCCOCCOCCOc2ccc(-c3cn4c(n3)CCC4)cc2CNC(=O)Cc2ccc(Cl)c(Cl)c2)C(C)(C)C)cc1`, the 50% inhibitory concentration (IC50) in assay [3] and in assay [4] was no less than 50 µM each time. In assay [5], this compound came in with a deltaTm of 4.5 K.
